Measurements as given in patent US9592223B2, “Small molecule inhibitors of MALT1” (Cornell University, priority 2012, dated 2017).

Legend:
NF-κB reporter activity = test: NF-κB reporter assay in HBL-1 cells; format: cell-based, human
Description: Antigen receptor-mediated NF-κB signaling partly depends on MALT1 activity (Ruefli-Brasse et al., 2003; Ruland et al., 2003). […] First, 293T cells were transfected with the NF-κB reporter vector (NF-κB)5-luc2CP-pGL4 (harboring 5 copies of the NF-κB consensus response element and a destabilized Firefly luciferase) and TK-pRL control together with plasmids expressing BCL10 and either MALT1^WT or MALT1^C464A. […] HBL-1 was transfected with the reporter construct (NF-κB)5-luc2CP-pGL4 and TK-pRL control.
Reporter assays were performed in 293T cells seeded at a density of 2×10^5 cells per well of a 12-well dish. 100 ng of (NF-κB)5-Luc2CP-pGL4 and 10 ng of TK-Renilla internal control plasmid were cotransfected along with 25 ng of the indicated plasmids (MIGR1-MALT1^WT or MIGR1-MALT1^C464A and pcDNA4-Flag-Bcl10) using Lipofectamine 2000 (Invitrogen). Lysates were submitted to dual luciferase assays following manufacturer's protocol (Promega). In HBL-1, 5 μg of (NF-κB)5-Luc2CP-pGL4 and 50 ng of TK-Renilla internal control plasmid per 5×10^6 cells were cotransfected using nucleofection (Amaxa, Lonza, Basel, Switzerland). Forty-eight hours after transfection, cells were plated at a density of 5×10^4 cells per well of a 24-well plate and treated as indicated. Lysates were submitted to dual luciferase assays following manufacturer's protocol (Promega).

[1] = Toxicity 2: 25 mg/kg daily IP for 14 days, blood count, serum chemistry, histology; format: in vivo, mice; settings: for ALBUMIN / ALP / ALT / AST / BASOPHILS / BUN / CALCIUM / CHLORIDE / CHOLESTEROL / CK / CREATININE / DIRECT BILIRUBIN / EOSINOPHILS / GGT / GLOBULIN / GLUCOSE / HEMATOCRIT / HEMOGLOBIN / INDIRECT BILIRUBIN / LYMPHOCYTES / MONOCYTES / NEUTROPHILS / PHOSPHORUS / PLATELETS / RBC / SODIUM / TOTAL BILIRUBIN / TOTAL PROTEIN / WBC: 25 mg/kg IP daily 14 days
Description: Brain, heart, lung, liver, kidney, bowel, spleen, thymus and bone marrow tissues were examined.

[2] = system: TMD8 ABC-DLBCL xenografts; test: TMD8 xenograft in NOD-SCID mice; format: in vivo; settings: IP 25 mg/kg/day
Method: Animals were sacrificed 24 hr after the fourteenth injection.
Eight-week old male SCID NOD.CB17-Prkdc^scid/J mice were subcutaneously injected with low-passage 10^7 human HBL-1, TMD8 or OCI-Ly1 cells. Treatment was administered by intra-peritoneal injection. Tumor volume was monitored by three-weekly digital calipering. All procedures followed US NIH protocols and were approved by the Animal Institute Committee of the Weill Cornell Medical College.
Eight-week old male SCID NOD.CB17-Prkdc^scid/J mice were purchased from Jackson Laboratories (Bar Harbor, Minn.) and housed in a clean environment. Mice were subcutaneously injected with low-passage 10^7 human TMD8 or OCI-Ly1 cells in 50% matrigel (BD Biosciences, #354234). Treatment was initiated when tumors reached an average size of 120 mm^3 (17 days post-transplantation). Drugs were reconstituted in DMSO and stored at −80° C. until used and were administered by intra-peritoneal injection. Tumor volume was monitored by three-weekly digital calipering (Fisher Scientific, Thermo Scientific, Rockford, Ill.) and calculated using the formula (smallest diameter^2×largest diameter)/2. Data were expressed as mean±SEM, and differences were considered statistically significant at p<0.05 by paired Student's t-test. All procedures involving animals followed US NIH protocols and were approved by the Animal Institute Committee of the Weill Cornell Medical College of Cornell University.
Paraffin-embedded tumor xenografts were sectioned, dewaxed and submitted to antigen retrieval. For IF-P, Alexa Fluor-488 conjugated secondary antibodies from Invitrogen where used and cell nuclei where counterstained with DAPI. Fluorescent images were taken using an Axiovert 200M fluorescent microscope (Carl Zeiss Inc., Thornwood, N.Y.). Oberkochen, Germany). For IHC, biotin-conjugated secondary antibodies where used. Then avidin/biotin peroxidase was applied to the slides (Vector Laboratories). Color was developed with diaminobenzoate chromogen peroxidase substrate (Vector) and counterstained with hematoxilin-eosyn. […]

COCCOc1nc(-c2ccc(Cl)c(Cl)c2)n(-c2ccc(NC(=O)CCl)cc2)n1 [MI-2]
reduction in NF-κB reporter activity (NF-κB reporter activity; HBL-1, 8 hr): 20% | reduction in NF-κB reporter activity (NF-κB reporter activity; HBL-1, 24 hr): 50% | ALBUMIN ([1]; d14): 3.12 g/dL | ALP ([1]; d14): 83 U/L | ALT ([1]; d14): 25 U/L | AST ([1]; d14): 70 U/L | BASOPHILS ([1]; d14): 0.01 K/μL | BUN ([1]; d14): 23.4 mg/dL | CALCIUM ([1]; d14): 10.88 mg/dL | CHLORIDE ([1]; d14): 108.4 mEq/L | CHOLESTEROL ([1]; d14): 85.4 mg/dL | CK ([1]; d14): 202.8 U/L | CREATININE ([1]; d14): 0.22 mg/dL | DIRECT BILIRUBIN ([1]; d14): 0.10 mg/dL | EOSINOPHILS ([1]; d14): 0.03 K/μL | GGT ([1]; d14): 0 U/L | GLOBULIN ([1]; d14): 2.20 g/dL | GLUCOSE ([1]; d14): 313.8 mg/dL | HEMATOCRIT ([1]; d14): 40.86% | HEMOGLOBIN ([1]; d14): 12.94 g/dL | INDIRECT BILIRUBIN ([1]; d14): 0.08 mg/dL | LYMPHOCYTES ([1]; d14): 6.29 K/μL | MONOCYTES ([1]; d14): 0.32 K/μL | NEUTROPHILS ([1]; d14): 1.18 K/μL | PHOSPHORUS ([1]; d14): 9.46 mg/dL | PLATELETS ([1]; d14): 981 K/μL | RBC ([1]; d14): 8.60 M/μL | SODIUM ([1]; d14): 152.8 mEq/L | TOTAL BILIRUBIN ([1]; d14): 0.180 mg/dL | TOTAL PROTEIN ([1]; d14): 5.32 g/dL | WBC ([1]; d14): 7.83 K/μL | ALBUMIN ([1]; d24 (10-day washout)): 3.15 g/dL | ALP ([1]; d24 (10-day washout)): 100 U/L | ALT ([1]; d24 (10-day washout)): 23 U/L | AST ([1]; d24 (10-day washout)): 49.5 U/L | BASOPHILS ([1]; d24 (10-day washout)): 0.04 K/μL | BUN ([1]; d24 (10-day washout)): 27.0 mg/dL | CALCIUM ([1]; d24 (10-day washout)): 10.80 mg/dL | CHLORIDE ([1]; d24 (10-day washout)): 106.7 mEq/L | CHOLESTEROL ([1]; d24 (10-day washout)): 91.75 mg/dL | CK ([1]; d24 (10-day washout)): 119.5 U/L | CREATININE ([1]; d24 (10-day washout)): 0.20 mg/dL | DIRECT BILIRUBIN ([1]; d24 (10-day washout)): 0.10 mg/dL | EOSINOPHILS ([1]; d24 (10-day washout)): 0.11 K/μL | GGT ([1]; d24 (10-day washout)): 0 U/L | GLOBULIN ([1]; d24 (10-day washout)): 2.15 g/dL | GLUCOSE ([1]; d24 (10-day washout)): 288.5 mg/dL | HEMATOCRIT ([1]; d24 (10-day washout)): 45.02% | HEMOGLOBIN ([1]; d24 (10-day washout)): 13.55 g/dL | INDIRECT BILIRUBIN ([1]; d24 (10-day washout)): 0.07 mg/dL | LYMPHOCYTES ([1]; d24 (10-day washout)): 6.76 K/μL | MONOCYTES ([1]; d24 (10-day washout)): 0.27 K/μL | NEUTROPHILS ([1]; d24 (10-day washout)): 1.85 K/μL | PHOSPHORUS ([1]; d24 (10-day washout)): 9.65 mg/dL | PLATELETS ([1]; d24 (10-day washout)): 1275 K/μL | RBC ([1]; d24 (10-day washout)): 9.38 M/μL | SODIUM ([1]; d24 (10-day washout)): 153 mEq/L | TOTAL BILIRUBIN ([1]; d24 (10-day washout)): 0.175 mg/dL | TOTAL PROTEIN ([1]; d24 (10-day washout)): 5.30 g/dL | WBC ([1]; d24 (10-day washout)): 9.03 K/μL | bone marrow histology ([1]; daily IP 25 mg/kg over 14 days): normocellular with trilineage maturing hematopoiesis | complete peripheral blood counts, biochemistry and liver function tests ([1]; daily IP 25 mg/kg over 14 days): normal | toxic effects, weight loss, tissue damage ([1]; daily IP 25 mg/kg over 14 days, cumulative 350 mg/kg): No toxic effects or other indicators of sickness | xenograft growth vs. vehicle ([2]; fourteen injections, p=0.015): profoundly suppressed the growth | apoptotic cells (TUNEL assay) ([2]; p<0.0001): significant increase in apoptotic cells | proliferation (Ki-67 staining) ([2]; p=0.0006): significant decrease in proliferation
